# Experimental data reported in US8329697B2, “Imidizo[1,2-A]pyrazines useful as AHCY hydrolase inhibitors” (Merck Sharp & Dohme Corp., priority 2008, dated 2012).
# Columns and labels:
# AHCY enzyme = AHCY enzyme (UniProt P23526); experiment: In vitro AHCY activity assay (ThioGlo1 fluorescence); type: biochemical; conditions: recombinant expressed human or mouse AHCY enzyme; SAH substrate; ThioGlo1 readout
# Protocol: In vitro AHCY Activity Assay
# The AHCY activity of the compounds of the invention can be measured by the following in vitro assay.
# The AHCY enzyme assay is based on the principle of fluorescence emission following incubation of a reactive dye with the products of an AHCY catalyzed reaction. The reactive dye (Thioglo1) binds homocysteine through its thiol-containing moiety. The products of the AHCY catalyzed reaction, adenosine and homocysteine, are produced from the hydrolysis of SAH (s-adenosylhomocysteine) through AHCY's hydrolase activity.
# The reaction is optimized in 96-, 384-, 1536- and 3456-assay plate formats with recombinant expressed human or mouse AHCY enzyme. When run under initial velocity conditions, the assay is suitable for IC50 and % inhibition calculations.
# • 1) ThioGlo1 (catalog 595501, Calbiochem); 100 mM in DMSO • 2) SAH (catalog A-9384, Sigma); 4.69 mM with 0.06 N HCl • 3) Aristeromycin (catalog A-0928, Sigma); 100 mM in DMSO • 4) NAD (catalog 43410, Sigma); 14.5 mM in water • 5) EDTA in 500 mM pH 8 (catalog BP2482-100, Fisher) • 6) DTT stock 200 mM in water • 7) AHCY enzyme (diluted with 100 mM tris pH7.5) Dilutions immediately prior to use: • 1. SAH 750 μM (10×) (dilute with 100 mM Iris pH 7.5) • 2. Aristeromycin (10×) (dilute to 1 mM with 100 mM Tris pH7.5) • 3. ThioGlo1 (10×) (dilute to 100 μM in Tris pH7.5) • 4. […] Read plate (Ex 380 Em 510)
# [1] = test system: AHCY in HEK293 and/or SH-SY5Y cells; experiment: Cell-based assay of AHCY inhibition (secreted homocysteine); conditions: secreted homocysteine from Hek293 or SH-SY5Y cells, 72 hrs compound treatment
# Excerpt: Cell-Based Assay of AHCY Inhibition
# The AHCY activity of the compounds of the invention can be measured by the following cell-based assay.
# Post treatment collection of the adherent Hek293 and/or SH-SY5Y cells is also made for a viability and proliferation measure. Since the amount of secreted homocysteine is limited by the amount of SAH that is converted to homocysteine in the cells and its subsequent secretion, an EC50 measure and % inhibition relative to DMSO control cells can be made. Since the amount of secreted metabolites such as homocysteine can also be related to the absolute and cellular viability, an MTT (3-(4,5-Dimethylthiazol-2-yl)-2,5-diphenyltetrazolium bromide) measure of proliferation and relative cytotoxicty (as compared to control conditions) may also be made.
# • 1. The day before compound treatment, plate 20,000 cells (Hek293 or SH-SY5Y) in 96 well cell culture treated plates in 100 μl of cell culture media (DMEM and 10% fetal bovine serum). • 2. Add fresh media plus compound (and DMSO treated controls) for 72 hrs. • 3. Collect conditioned media for measurement of secreted homocysteine and perform viability/proliferation assay on adherent cells. Measure of Secreted Homocysteine: • 1. […]
# a. […] Detection: Fluorescence: Excitation 385 nm, Emission 515 nm • v. […]
# b. […] absorbance at 550 nm and 690 nM. • 6. Express readout as 550 nM-690 nM.
IC50 (AHCY enzyme),SMILES,IC50 [1]
692 nM,"Nc1nccn2c([C@@H]3CC[C@@H](O)[C@H]3O)cnc12 [Example 2, (1R,2S,3S)-3-(8-aminoimidazo[1,2-a]pyrazin-3-yl)cyclopentane-1,2-diol]",1.4 nM
4 nM,"Nc1nccn2c([C@@H]3C=C(CO)[C@@H](O)[C@H]3O)cnc12 [Example 1, (1S,2R,5S)-5-(8-aminoimidazo[1,2-a]pyrazin-3-yl)-3-(hydroxymethyl)cyclopent-3-ene-1,2-diol]",4 nM
